“And” between values parts separate entries of the source, which are not always exact repeats. Identical values can stand only once. One block for each sequence: values may come before it. Where no end group is shown, it is not given here.
Experiments:
Type in all cases: cell-based
[1] = molecular target: T1, PTHR1 (Homo sapiens, UniProt Q03431); assay: β-arrestin1 recruitment BRET assay in transfected HEK293T cells; set-up: Flag (N); Life Technologies Corporation, CA (arrestin cDNA); host or cells: HEK293T (CRL-3216, ATCC); details: for −log10Slope: fitted curve slope; for −log10Slope / EC50: replicate plates; for β1-arrestin: relative to PTH [1-34], HEK293T cells, BRET
T1 sequence (Q03431 27-593): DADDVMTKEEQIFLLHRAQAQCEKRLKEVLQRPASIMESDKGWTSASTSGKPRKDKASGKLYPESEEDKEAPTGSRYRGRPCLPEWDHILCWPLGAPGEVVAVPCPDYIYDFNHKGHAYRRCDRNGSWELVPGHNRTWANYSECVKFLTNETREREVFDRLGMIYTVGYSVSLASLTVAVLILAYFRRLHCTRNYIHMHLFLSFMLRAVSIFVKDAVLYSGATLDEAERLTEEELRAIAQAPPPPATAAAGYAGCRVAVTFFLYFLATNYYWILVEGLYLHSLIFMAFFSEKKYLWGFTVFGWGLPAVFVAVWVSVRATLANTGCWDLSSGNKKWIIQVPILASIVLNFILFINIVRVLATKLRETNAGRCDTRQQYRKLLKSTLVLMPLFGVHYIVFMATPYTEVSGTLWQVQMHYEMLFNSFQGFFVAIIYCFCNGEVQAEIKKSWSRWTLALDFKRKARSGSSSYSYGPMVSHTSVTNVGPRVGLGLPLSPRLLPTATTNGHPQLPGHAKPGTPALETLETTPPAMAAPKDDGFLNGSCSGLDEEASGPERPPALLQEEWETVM
Experimental: (§1) 18-24 hours post transfection, the Luciferase substrate Coelenterazine (NanoLight Technologies, AZ) was added to cells, a baseline BRET measurement was taken after 5 minutes incubation, and then serial dilutions of peptides, diluted in PBS (with 0.5 mM MgCl2+0.1% BSA FAF), were added to cells, and BRET signal was measured every 2 minutes for 30 minutes on Hybrid Multi-Mode Reader (Synergy Neo2, BioTek, VT). Seventy-five peptides were tested in the β-arrestin recruitment assay.

[2] = molecular target: T1, PTHR1; assay: cAMP accumulation assay (HTRF) in CHO-K1/Ga15/PTHR1 cells; set-up: host or cells: CHO-K1 (recombinant line CHO-K1/Ga15/PTHR1); details: for cAMP accumulation activity compared to control peptide: FIG. 3, PTH 1-34 positive control; for cAMP: relative to PTH [1-34], CHO-K1/Ga15/PTHR1 cells; for Emax: CHO-K1, cAMP assay, fitted dose-response maximum
Experimental: Cell suspension (5 μL) was seeded in 384-well plates at a density of 3,000 cells/well. Cells were treated with test samples (5 μL) or agonist (PTH 1-34) for 30 minutes at room temperature. cAMP-d2 working solution (5 μL) and anti-cAMP-Cryptate working solution (5 μL) were added to cells and incubated for 60 minutes at room temperature. The signal of the assay plate was read with PheraStar (BMG LABTECH, NC), an HTRF compatible reader.

[3] = molecular target: T1, PTHR1; assay: β-arrestin2 recruitment BRET assay in transfected HEK293T cells; set-up: Flag (N); Life Technologies Corporation, CA (arrestin cDNA); host or cells: HEK293T (CRL-3216, ATCC); details: for −log10Slope: fitted curve slope; for −log10Slope / EC50: replicate plates; for β-arrestin2 assay activity compared to control peptide: FIG. 2, PTH 1-34 positive control; for β2-arrestin: relative to PTH [1-34], HEK293T cells, BRET
Experimental: as §1

[4] = β-arrestin1 recruitment, read-out: −log10EC50 (converted)
[5] = cAMP accumulation, fitted curve slope, replicate plates
[6] = cAMP accumulation, replicate plates, read-out: −log10EC50 (converted)
[7] = β-arrestin2 recruitment, read-out: −log10EC50 (converted)
[8] = cAMP assay, fitted dose-response curve, read-out: −log10EC50 (converted)
[9] = cAMP assay, fitted dose-response slope

Sequence: AVAEIQLMHQRAKWGLELELKEKLRKILEDVY [Peptide R2-26]
−log10Slope ([1]; β-arrestin1 recruitment): −2.291 and −7.462
EC50 [1, 4]: 27.1 nM and 12.9 nM
−log10Slope [2, 5]: −14.6415
EC50 [2, 6]: 84.5 nM
−log10Slope ([3]; β-arrestin2 recruitment): −2.019 and −6.257
EC50 [3, 7]: 16.1 nM and 12.5 nM

Sequence: AVAEIQLMHQRAKWIQDARRRAFLHKLIAEIH [LA-PM-FL, reference compound]
β1-arrestin [1]: +
−log10Slope ([1]; β-arrestin1 recruitment, listed as R1-81): −3.271 and −2.571 and −2.99
EC50 [1, 4]: 1.75 nM and 2.65 nM and 3.53 nM
−log10Slope [2, 5]: −5.23
EC50 [2, 6]: 13.1 nM
β-arrestin2 assay activity compared to control peptide [3]: increased activity as compared to control
β2-arrestin [3]: ++
−log10Slope ([3]; β-arrestin2 recruitment, listed as R1-81): −3.14 and −3.448 and −2.307
EC50 [3, 7]: 3.64 nM and 3.04 nM and 3.08 nM

Sequence: AVAEIQLMHQRAKWKLDLELAVSLRKILEDVY [Peptide R2-27]
−log10Slope ([1]; β-arrestin1 recruitment): −7.323 and −7.877
EC50 [1, 4]: 12 nM and 9.45 nM
cAMP accumulation activity compared to control peptide [2]: activity similar to the control peptide
−log10Slope [2, 5]: −4.343
EC50 [2, 6]: 12.2 nM
cAMP [2]: +
−log10Slope ([3]; β-arrestin2 recruitment): −1.829 and −3.204
EC50 [3, 7]: 22.6 nM and 8.32 nM

Sequence: AVAEIQLMHQRAKWKLELELKEKIRKLLEDLL [Peptide R2-29]
β1-arrestin [1]: +
−log10Slope ([1]; β-arrestin1 recruitment): −5.782 and −7.833
EC50 ([1]; −log10EC50, β-arrestin1 recruitment): 7.12 nM and 1.68 nM
EC50 [2]: 60.4 nM
−log10Slope [2, 5]: −16.1973
β-arrestin2 assay activity compared to control peptide [3]: increased activity as compared to control
β2-arrestin [3]: ++
−log10Slope ([3]; β-arrestin2 recruitment): −2.874 and −3.055
EC50 ([3]; −log10EC50, β-arrestin2 recruitment): 4.09 nM and 3.49 nM

Sequence: AVAEIQLMHQRAKWKLELELKVKLLEILKDVY [Peptide R2-25]
−log10Slope ([1]; β-arrestin1 recruitment): −3.965 and −2.819
EC50 [1, 4]: 2.59 nM and 5.42 nM
cAMP accumulation activity compared to control peptide [2]: activity similar to the control peptide
−log10Slope [2, 5]: −10.1961
EC50 [2, 6]: 12.9 nM
cAMP [2]: +
β-arrestin2 assay activity compared to control peptide [3]: increased activity as compared to control
β2-arrestin [3]: ++
−log10Slope ([3]; β-arrestin2 recruitment): −3.2515 and −2.752
EC50 [3, 7]: 4.3 nM and 1.73 nM

Sequence: AVAEIQLMHQRAKWLEELKLKDDLRKILEDVY [Peptide R2-30]
−log10Slope ([1]; β-arrestin1 recruitment): −4.267 and −2.2289
EC50 [1, 4]: 13.3 nM and 5.21 nM
−log10Slope [2, 5]: −18.1852
EC50 [2, 6]: 80 nM
β-arrestin2 assay activity compared to control peptide [3]: activity similar to the control peptide
β2-arrestin [3]: +
−log10Slope ([3]; β-arrestin2 recruitment): −2.543 and −1.4524
EC50 [3, 7]: 12.1 nM and 5.02 nM

Sequence: GIAVITLMDLRAYLRAEYELREMLLRLLEEIF [Peptide R2-13]
β1-arrestin [1]: +
−log10Slope ([1]; β-arrestin1 recruitment): −3.163
EC50 [1, 4]: 1.61 nM
−log10Slope [2, 5]: −3.312
EC50 [2, 6]: 4870 nM
−log10Slope ([3]; β-arrestin2 recruitment): −3.619

More lines, main results first:

−log10Slope ([1]; β-arrestin1 recruitment): −4.328 and −4.739 and −2.6191
EC50 [1, 4]: 483 nM and 470 nM and 542 nM
−log10Slope [2, 5]: 4.438
EC50 [2, 6]: 0.00841 nM
cAMP [2]: ++
−log10Slope ([3]; β-arrestin2 recruitment): −2.787 and −1.761 and −3.574
EC50 [3, 7]: 255 nM and 1750 nM and 337 nM
Sequence: AVAEIQLMHQRAKWGLEIELLKLLLSLLKEYI [Peptide R2-45]
cAMP accumulation activity compared to control peptide [2]: increased activity as compared to the control peptide

−log10Slope ([1]; β-arrestin1 recruitment): −0.6156 and −2.473 and −2.432
cAMP accumulation activity compared to control peptide [2]: activity similar to the control peptide
−log10Slope [2, 5]: −9.142
EC50 [2, 6]: 9.84 nM
cAMP [2]: +
−log10Slope ([3]; β-arrestin2 recruitment): −3.628 and −0.891 and −4.077
Sequence: AVAEIQLMHQRAKWGVELQLKVDLRRILEDVY [Peptide R2-35]

−log10Slope ([1]; β-arrestin1 recruitment): −3.1505 and −0.7628
EC50 [1, 4]: 1890 nM
Emax [2]: 98.8%
EC50 [2, 8]: 64 nM
−log10Slope [2, 9]: −14.2687
β2-arrestin [3]: ++
−log10Slope ([3]; β-arrestin2 recruitment): −8.231 and −1.939
EC50 [3, 7]: 0.0212 nM
Sequence: AVAEIQLMHQRAKWKILEELLKILIDLLKQYI [Peptide R2-48]
β-arrestin2 assay activity compared to control peptide [3]: increased activity as compared to control

β1-arrestin [1]: +
−log10Slope ([1]; β-arrestin1 recruitment): −5.884 and −3.429 and −1.931
EC50 [1, 4]: 1.47 nM and 4.7 nM and 2.91 nM
cAMP accumulation activity compared to control peptide [2]: activity similar to the control peptide
−log10Slope [2, 5]: −1.696
EC50 [2, 6]: 4.76 nM
cAMP [2]: +
β2-arrestin [3]: ++
−log10Slope ([3]; β-arrestin2 recruitment): −4.1664 and −3.85 and −3.8162
EC50 [3, 7]: 2.5 nM and 1.98 nM and 5.39 nM
Sequence: AVAEIQLMHQRAKWKLELELKAFLDQILKDVL [Peptide R2-36]
β-arrestin2 assay activity compared to control peptide [3]: increased activity as compared to control

−log10Slope ([1]; β-arrestin1 recruitment): −2.007 and −4.048 and −4.079
EC50 [1, 4]: 5.83 nM and 10.3 nM and 3.98 nM
−log10Slope [2, 5]: −17.9495
EC50 [2, 6]: 80.1 nM
β-arrestin2 assay activity compared to control peptide [3]: activity similar to the control peptide
β2-arrestin [3]: +
−log10Slope ([3]; β-arrestin2 recruitment): −5.331 and −2.162 and −8.426
EC50 [3, 7]: 7.61 nM and 4.94 nM and 8.19 nM
Sequence: AVAEIQLMHQRAKWLNELRLKEEMRKILEDVY [Peptide R2-33]

−log10Slope ([1]; β-arrestin1 recruitment): −3.251 and −3.221 and −4.25
EC50 [1, 4]: 2.75 nM and 6.54 nM and 3.31 nM
−log10Slope [2, 5]: −11.9049
EC50 [2, 6]: 106 nM
β-arrestin2 assay activity compared to control peptide [3]: activity similar to the control peptide
β2-arrestin [3]: +
−log10Slope ([3]; β-arrestin2 recruitment): −3.972 and −3.591 and −3.249
EC50 [3, 7]: 4.54 nM and 3.85 nM and 8.05 nM
Sequence: AVAEIQLMHQRAKWRLEIELLKKLKEILKDVY [Peptide R2-34]

−log10Slope ([1]; β-arrestin1 recruitment): −3.276 and −2.346 and −3.027
EC50 [1, 4]: 2.88 nM and 15 nM and 2.81 nM
−log10Slope [2, 5]: 0.4711
EC50 [2, 6]: 0.0365 nM
cAMP [2]: ++
−log10Slope ([3]; β-arrestin2 recruitment): −0.789 and −3.6425 and −9.383
Sequence: AVAEIQLMHQRAKWSLREELEKLLKELLKEYI [Peptide R2-44]
cAMP accumulation activity compared to control peptide [2]: increased activity as compared to the control peptide

β1-arrestin [1]: ++
−log10Slope ([1]; β-arrestin1 recruitment): 2.312
EC50 [1, 4]: 0.149 nM
Emax [2]: 97.4%
EC50 [2, 8]: 2570 nM
−log10Slope [2, 9]: −3.437
−log10Slope ([3]; β-arrestin2 recruitment): −0.9875
Sequence: GIAVITLMLLRAYLELLEELVKILHELLRRYH [Peptide R2-52]
β-arrestin1 recruitment compared to PTH 1-34 ([1]; FIG. 1, PTH 1-34 positive control): higher levels of recruitment of β-arrestin 1

Source: patent US12344649B2, “Modulators of parathyroid hormone receptor (PTHR1)” (Flagship Pioneering Innovations VI, LLC, priority 2019, dated 2025)
